{"source": "patent US11091429B2", "about": "“Organic compounds” (Givaudan SA, priority 2012, dated 2021)", "key": {"Tasting of baked pizza": {"experiment": "Tasting of baked pizza", "conditions": "0.5 PPM in the crust and 0.5 PPM in the tomato sauce, baked at 200 degrees Celsius", "experimental": "(§1) The following formulations were prepared and tasted by trained panelists.\nDifferentiator high temperature 100-250 degrees Celsius in hot air baking process\nC18:2 gaba @ 0.5 PPM in the crust and @ 0.5 PPM in the tomato sauce\nThe pizza was topped off with cheese and baked in a hot air oven @ 200 degrees Celsius"}, "Test on Heineken beer": {"experiment": "Test on Heineken beer", "conditions": "0.5 ppm, 4% alcohol", "experimental": "In Heineken beer (Market Product) containing 4% alcohol C18:2-gaba was added at 0.5 ppm\nSamples were evaluated by expert tasters. Tasters were asked to describe the samples focusing on authentic taste, alcohol impact, malt taste, hop taste, mouthfeel, fullness, salivation, sweetness, bitterness, richness, long lastingness and fattiness.\n(§2) Samples were evaluated by expert tasters. Tasters were asked to describe the samples focusing on authentic taste, mouthfeel, fullness, salty-ness, salivation, umami, sweetness, juiciness, richness, long lastingness and fattiness.\nBase: Heineken beer (containing 4% alcohol)"}, "[1]": {"experiment": "Tasting in chocolate milk", "experimental": "Chocolate Milk with Different Fat Content […]\n(§3) Samples were evaluated by expert tasters. Tasters were asked to describe the samples focusing on authentic taste, mouthfeel, fullness, salivation, sweetness, juiciness, richness, long lastingness and fattiness."}, "Test on Tang": {"experiment": "Test on Tang", "conditions": "0.5 ppm, orange flavoured Tang", "experimental": "In an orange flavoured Tang powdered soft drink (market product) sweetened with sucrose plus high intensity sweetener and containing citric acid, C18:2-gaba and C18:2-pro were tested.\nAll samples were evaluated by expert tasters. Tasters were asked to describe the samples focusing on authentic taste, mouthfeel & body, enhancement, richness, juiciness, long lastingness, salivation, sweetness, masking off notes of high intensity sweetener\nBase is Orange Flavoured Tang"}, "Tasting in soy milk": {"experiment": "Tasting in soy milk", "conditions": "2 ppm, soy milk (1.8% fat), 5% sucrose, milk flavour 0.1%", "experimental": "In a soy milk (1.8% fat) sweetened with 5% sucrose by weight, flavoured with a proprietary milk flavour ata dosage of 0.1%, C18:2-gaba was added at 2 ppm\nas §3"}, "[2]": {"experiment": "Tasting in UHT milk, cream flavoured", "conditions": "2 ppm, cream flavour 0.03%", "experimental": "The following tests were carried out on dairy products processed by fermentation, pasteurization or UHT. The products contain fat, protein and calcium.\nUHT Milk Cream Flavoured, Non Sweetened and Different Fat Levels\nIn a UHT milk containing 0%, 1.5% and 3% fat, flavoured with a proprietary cream flavour closed at 0.03% C18:2 gaba was added at 2 ppm.\nSamples were evaluated by expert tasters.\nTasters were asked to describe the samples focusing on authentic taste, mouthfeel, fullness, salivation, sweetness, juiciness, richness, long lastingness and fattiness. The results are presented below:—"}, "[3]": {"experiment": "Tasting in vanilla flavoured milk 3.0% fat", "conditions": "2 ppm, 4% sugar, vanillin 10 ppm, vanilla extract 0.03%", "experimental": "Vanilla Flavoured Milk 3.0% Fat\nIn a 3% fat milk drink, sweetened with 4% sucrose by weight, flavoured with Vaniline @ 10 ppm and a Vanilla extract @ 0.03% C18:2-gaba, C18:1-ACOA and C18:1-glu were added at 0.5 or 2 ppm.\nas §3\nBase: Milk 3% fat, 4% sugar, vanillin 10 ppm, vanilla extract 0.03%"}, "[4]": {"experiment": "Tasting in mango juice drink, 1% clear mango juice", "conditions": "8% sucrose, 0.1% citric acid, mango flavour 0.05%", "experimental": "Comparison in a Mango Juice Drink\nBase is 8% sucrose, 0.1% citric acid, 1% clear mango juice, and a proprietary mango flavour at 0.05%.\nas §2\nBase is water, 8% sucrose, 0.1% citric acid, 1% clear mango juice, proprietary mango flavour @ 0.05%\nSamples were evaluated by expert tasters. Tasters were asked to describe the samples focusing on authentic taste, mouthfeel, fullness, salivation, salty-ness, umami, sweetness, juiciness, richness, long lastingness and fattiness.\nBase is water, 8% sucrose, 0.1% citric acid, 1% clear mango juice, proprietary mango flavour @0.05%\nSamples were evaluated by expert tasters. Tasters were asked to describe the samples focusing on authentic taste, mouthfeel, fullness, salty-ness, salivation, umami, sweetness, juiciness, richness, long lastingness and fattiness\nBase is 8% sucrose, 0.1% citric acid, 1% clear mango juice, proprietary mango flavour @ 0.05%\nSamples were evaluated by expert tasters. Tasters were asked to describe the samples focusing on authentic taste, mouth feel, fullness, salivation, salty-ness, umami, sweetness, juiciness, richness, long lastingness and fattiness\nBase is water, 8% sucrose, 0.1% citric acid, 1% clear mango juice, proprietary mango flavour @ 0.05%.\nTest in a Mango Juice Drink"}, "[5]": {"experiment": "Test in chocolate flavoured drink", "conditions": "2 ppm; water, 4% sucrose, chocolate flavour 0.03%", "experimental": "(§4) Samples were prepared and evaluated by expert tasters. Tasters were asked to describe the samples focusing on authentic taste, mouthfeel, fullness, salty-ness, salivation, umami, sweetness, juiciness, richness, long lastingness and fattiness.\nTest in Chocolate Flavoured Drink:\nBase: Water, 4% sucrose, proprietary chocolate flavor at 0.03%\nas §2\nTest in Chocolate Flavoured Drink Flavoured\nBase: Water, 4% sucrose, proprietary chocolate flavour @ 0.03%"}, "Test on mouthwash": {"experiment": "Test on mouthwash", "conditions": "1 ppm, Paradontax alcohol free mouthwash", "experimental": "as §2\nBase: Paradontax alcohol free mouthwash."}, "[6]": {"experiment": "Test in pineapple flavoured drink", "conditions": "1 ppm; water, 8% sugar, 0.1% citric acid, pineapple flavour 0.03%", "experimental": "as §4\nTest in Pineapple Flavoured Drink:\nBase is water, 8% sugar, 0.1% citric acid and proprietary pineapple flavour at 0.03%\nas §2"}, "[7]": {"experiment": "Tasting on air expanded base", "conditions": "3% fat, cheese seasoning", "experimental": "as §1\nAn air expanded base (Rice, wheat, Tapioca, potato, salt, sugar, modified starch), containing 3% fat and flavored with cheese seasoning containing salt, MSG, dairy, organic acids, sugars and flavor. The following compounds were added to the base at the indicated levels and the tasting results are reported: […]"}, "Tasting in cheese sauce": {"experiment": "Tasting in cheese sauce", "conditions": "0.5 PPM in cheese sauce 5% fat 1.6% salt", "experimental": "as §1\nCheese sauce: 5% fat 1.6% salt\nSamples were prepared and evaluated by expert tasters. Tasters were asked to describe the samples focusing on authentic taste, mouthfeel, fullness, salivation, salty-ness, umami, sweetness, juiciness, richness, long lastingness and fattiness.\nCheese Sauce: 5% Fat 1.6% Salt"}, "[8]": {"experiment": "Tasting on fried potato snack product", "conditions": "35% fat, cheese seasoning", "experimental": "as §1\nA snack product consisting of a fried potato base, containing 35% fat and flavored with cheese seasoning containing salt, MSG, dairy, organic acids, sugars, and a flavour formulation. The following compounds were added to the snack product at the indicated levels and the tasting results are reported: […]"}}, "note": "“Also recorded” adds a separate entry of the source."}
{"compound": "CCCCC/C=C\\C/C=C\\CCCCCCCC(=O)NCCCC(=O)O", "note": "[C18:2-gaba]", "values": [{"measurement": "tasting result", "setting": "Tasting of baked pizza", "result": "The crust was less dry, more succulent and the tomato was richer, sweeter and the total lingering aftertaste was very rich and pleasant"}, {"measurement": "tasting result", "setting": "Test on Heineken beer", "result": "more hoppy, more bitter, more malt and stronger alcohol impact"}, {"measurement": "tasting result", "setting": "Test on Heineken beer; listed as C18:2 gaba", "result": "more happy, more bitter, more malt and stronger alcohol impact"}, {"measurement": "tasting result", "setting": "[1]; 0.5 ppm, chocolate milk 1.8% fat", "result": "stronger cocoa note, more chocolate vs cocoa"}, {"measurement": "tasting result", "setting": "[1]; 0.5 ppm, chocolate milk 3% fat", "result": "very creamy, enhanced cocoa note"}, {"measurement": "tasting result", "setting": "[1]; 1 ppm, chocolate milk 1.8% fat", "result": "very creamy, chocolate, long-lasting creamy and chocolate taste"}, {"measurement": "tasting result", "setting": "[1]; 1 ppm, chocolate milk 3% fat", "result": "very creamy, lasting, sweet, almost taste like chocolate ice cream"}, {"measurement": "tasting result", "setting": "Test on Tang", "result": "enhances sweet juicy orange notes, enhanced mouthfeel; also recorded: the off-notes of the high intensity sweetener were suppressed"}, {"measurement": "tasting result", "setting": "Tasting in soy milk", "result": "clean, creamy, good masking of the soy bean taste, creamy and milky"}, {"measurement": "tasting result", "setting": "[2]; UHT milk 0% fat", "result": "Very creamy, milky, long lasting"}, {"measurement": "tasting result", "setting": "[2]; UHT milk 1.5% fat", "result": "very creamy, milky, long lasting, salivating"}, {"measurement": "tasting result", "setting": "[2]; UHT milk 3.0% fat", "result": "very creamy, milky, long lasting, taste like whipped cream"}, {"measurement": "tasting result", "setting": "[3]", "result": "beany, fatty, authentic, sweet"}, {"measurement": "tasting result", "setting": "[4]; 1 ppm", "result": "fatty skin-like, very juicy, authentic mango, much more mouthfeel, long lasting mango taste, mouthfeel is close to the full juice product"}, {"measurement": "tasting result", "setting": "[4]; 2 ppm", "result": "fatty skin like, juicy, authentic"}, {"measurement": "tasting result", "setting": "[5]", "result": "full, sweeter, more vanillic, milk chocolate is enhanced, very long lasting"}, {"measurement": "tasting result", "setting": "Test on mouthwash", "result": "much less bitter, very sweet, smooth, less burning, round spicy, more minty and more cooling"}, {"measurement": "tasting result", "setting": "[6]", "result": "very ripe, jammy, long lasting and sweet"}, {"measurement": "tasting result", "setting": "[7]; 0.5 ppm on air expanded base", "result": "Increased dairy, cheese"}, {"measurement": "tasting result", "setting": "[7]; 1 ppm on air expanded base", "result": "Fatty full, cheesy, cheese crust, long lasting, cover base"}, {"measurement": "tasting result", "setting": "Tasting in cheese sauce", "result": "Full, Salty, cheese bite expanding"}, {"measurement": "tasting result", "setting": "[8]; 0.5 ppm on fried potato snack", "result": "increased dairy, cheesy"}, {"measurement": "tasting result", "setting": "[8]; 1 ppm on fried potato snack", "result": "Fatty full, cheesy, cheese crust, long lasting"}]}
